Results as given in ChEMBL document CHEMBL1201862, “PubChem BioAssay data set” (2004).
Values belong to the molecule of their own block, whether it stands above or below them. Active and inactive are the calls of the source.

What was measured:
Beta-galactosidase = Beta-galactosidase (Escherichia coli, UniProt Q8VNN2); test: detection-enzyme interference by beta-gal modulators – biochemical, E. coli enzyme, set 3, artefact control for CCR6 antagonist project, dose response (AID 504712); format: functional
[1] = molecular target: C-C chemokine receptor type 6 (Homo sapiens, UniProt P51684); test: antagonism of CCR6 beta-arrestin recruitment – cell-based, luminescent beta-arrestin readout, dose response (AID 504728); format: functional
[2] = molecular target: Eukaryotic translation initiation factor 4H (Homo sapiens, UniProt Q15056); test: eIF4H binding inhibition – biochemical, uHTS, fluorescence polarization, translation initiation inhibitor project, primary screen (AID 2012)
[3] = molecular target: Polyadenylate-binding protein 1 (Homo sapiens, UniProt P11940); test: blockers of PABP interaction with poly(A) – biochemical, fluorescence polarization, […] (AID 2014)
[4] = molecular target: T1, Alkaline phosphatase, tissue-nonspecific isozyme (Homo sapiens, UniProt P05186); test: TNAP enzyme inhibition by screening hits, dose response, selectivity assay for mouse IAP inhibitor project, biochemical, human TNAP, uHTS hits (AID 488906); format: functional
T1 sequence (P05186 whole entry): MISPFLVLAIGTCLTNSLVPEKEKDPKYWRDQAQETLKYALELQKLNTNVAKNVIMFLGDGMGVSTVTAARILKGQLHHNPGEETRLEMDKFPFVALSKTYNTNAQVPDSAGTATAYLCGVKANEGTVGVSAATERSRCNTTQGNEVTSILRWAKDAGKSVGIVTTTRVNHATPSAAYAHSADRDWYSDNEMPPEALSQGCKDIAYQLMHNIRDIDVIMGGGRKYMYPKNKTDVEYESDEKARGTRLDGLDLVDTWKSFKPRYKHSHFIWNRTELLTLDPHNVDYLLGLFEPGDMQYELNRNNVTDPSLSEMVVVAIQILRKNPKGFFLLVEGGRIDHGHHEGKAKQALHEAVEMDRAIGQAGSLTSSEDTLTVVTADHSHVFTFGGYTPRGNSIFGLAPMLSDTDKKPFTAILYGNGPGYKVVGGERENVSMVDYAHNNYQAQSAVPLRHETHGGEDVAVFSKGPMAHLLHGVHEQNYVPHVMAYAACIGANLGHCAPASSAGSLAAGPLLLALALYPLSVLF

[5] = molecular target: Induced myeloid leukemia cell differentiation protein Mcl-1 (Homo sapiens, UniProt Q07820); format: functional
Phospholipase A2 = Phospholipase A2 (Homo sapiens, UniProt P04054); format: functional;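 also: confirmatory dose-response counterscreen on phospholipase A2, testing hits that came from an ultra-high-throughput screen for ATG4B inhibitors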
[6] = molecular target: Intestinal-type alkaline phosphatase (Homo sapiens, UniProt P09923); test: activation of human intestinal alkaline phosphatase – biochemical, dose response (AID 488873); format: functional
SUMO-activating enzyme [7] = molecular target: T2, SUMO-activating enzyme (Homo sapiens, UniProt Q9UBT2); test: blockers of UBC9-mediated SUMO conjugation – biochemical, AlphaScreen, SUMOylation inhibitor project, confirmation (AID 2018); format: functional
[8] = molecular target: Guanyl-specific ribonuclease T1 (Aspergillus oryzae (strain ATCC 42149 / RIB 40), UniProt P00651); test: inhibition of ribonuclease T1 activity – biochemical, fluorescence polarization, 1536-well, counter-screen for TPT1 inhibitor project, dose response (AID 2167)
[9] = molecular target: Likely tRNA 2'-phosphotransferase (Candida albicans (strain SC5314 / ATCC MYA-2876) (Yeast), UniProt Q5A7N4); test: inhibition of Candida TPT1 enzyme activity – biochemical, fluorescence polarization, dose response (AID 2160)
Cysteine protease ATG4B = molecular target: T3, Cysteine protease ATG4B (Homo sapiens, UniProt Q9Y4P1); format: functional;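 also: Fluorescence-based dose-response confirmation assay measuring inhibition of ATG4B activity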
T3 sequence (Q9Y4P1 whole entry): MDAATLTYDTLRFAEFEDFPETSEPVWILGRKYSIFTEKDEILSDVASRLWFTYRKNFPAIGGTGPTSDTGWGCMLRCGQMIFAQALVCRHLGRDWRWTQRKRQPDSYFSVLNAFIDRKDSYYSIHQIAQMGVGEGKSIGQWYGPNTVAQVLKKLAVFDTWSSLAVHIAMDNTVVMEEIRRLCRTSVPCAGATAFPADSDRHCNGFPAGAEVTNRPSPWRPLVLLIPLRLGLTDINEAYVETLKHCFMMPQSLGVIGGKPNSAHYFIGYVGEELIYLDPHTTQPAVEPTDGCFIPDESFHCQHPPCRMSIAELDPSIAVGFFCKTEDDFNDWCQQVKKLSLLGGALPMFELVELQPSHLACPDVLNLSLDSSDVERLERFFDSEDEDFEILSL

[10] = molecular target: Intestinal-type alkaline phosphatase (Mus musculus, UniProt P24822); test: PubChem AID 488785; format: functional
SUMO-activating enzyme [11] = molecular target: T2, SUMO-activating enzyme; test: blockers of SAE1/SAE2–UBC9 SUMO transfer – biochemical, HTRF, uHTS, primary screen (AID 2006); format: protein-complex assay
[12] = molecular target: Peroxisome proliferator-activated receptor gamma/Nuclear receptor corepressor 2 (Homo sapiens, UniProt P37231+Q9Y618); format: functional
[13] = molecular target: Photoreceptor-specific nuclear receptor (Homo sapiens, UniProt Q9Y5X4); format: functional;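 also: potency for compounds that break the NR2E3 corepressor complex and count as activators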
[14] = loss of viability in HepG2 cells – cell-based, CellTiter-Glo, cherry-picked, cytotoxicity control for Shn3 inhibitor project, dose response (AID 624134); format: functional
[15] = molecular target: FAD-linked sulfhydryl oxidase ALR (Homo sapiens, UniProt P55789); test: ALR-catalysed DTT oxidation blockers – biochemical, H2O2 detection, luminescence, cherry-pick, dose response (AID 493248)
BJ [16] = test: cells; format: functional, cell-based; conditions: Homo sapiens
Estrogen receptor beta [17] = molecular target: T4, Estrogen receptor beta (Homo sapiens, UniProt Q92731); test: blockers of SRC-3 recruitment to ERβ – biochemical, ELISA, streptavidin-HRP readout, orthogonal assay, confirmation (AID 1060)
[18] = molecular target: T5, Zinc finger protein mex-5 (Caenorhabditis elegans, UniProt Q9XUB2); test: potency of MEX-5 RNA-binding blockers – biochemical, C. elegans, fluorescence polarization, dose response (AID 1960)
T5 sequence (Q9XUB2 whole entry): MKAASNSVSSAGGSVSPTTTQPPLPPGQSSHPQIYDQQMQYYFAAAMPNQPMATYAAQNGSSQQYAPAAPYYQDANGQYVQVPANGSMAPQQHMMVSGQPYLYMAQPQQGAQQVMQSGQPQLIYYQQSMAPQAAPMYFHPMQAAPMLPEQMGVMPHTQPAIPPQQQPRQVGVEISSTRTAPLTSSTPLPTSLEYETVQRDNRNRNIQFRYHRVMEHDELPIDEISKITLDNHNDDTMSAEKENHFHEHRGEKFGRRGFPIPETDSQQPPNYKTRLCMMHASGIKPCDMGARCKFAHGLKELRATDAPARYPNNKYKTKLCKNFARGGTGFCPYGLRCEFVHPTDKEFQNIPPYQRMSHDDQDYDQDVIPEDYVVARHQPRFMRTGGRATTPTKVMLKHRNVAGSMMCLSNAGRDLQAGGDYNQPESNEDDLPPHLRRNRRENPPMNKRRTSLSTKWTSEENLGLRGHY

[19] = molecular target: Dual specificity tyrosine-phosphorylation-regulated kinase 1A (Rattus norvegicus, UniProt Q63470); format: biochemical, Homo sapiens
[20] = molecular target: T6, RNA-binding protein pos-1 (Caenorhabditis elegans, UniProt G5EF15); test: disruptors of C. elegans POS-1 RNA interaction – biochemical, fluorescence polarization, dose response (AID 1964);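 also: purified POS-1 fused to maltose binding protein made in E. coli; potency of compounds blocking POS-1 binding to fluorescent RNA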
T6 sequence (G5EF15 whole entry): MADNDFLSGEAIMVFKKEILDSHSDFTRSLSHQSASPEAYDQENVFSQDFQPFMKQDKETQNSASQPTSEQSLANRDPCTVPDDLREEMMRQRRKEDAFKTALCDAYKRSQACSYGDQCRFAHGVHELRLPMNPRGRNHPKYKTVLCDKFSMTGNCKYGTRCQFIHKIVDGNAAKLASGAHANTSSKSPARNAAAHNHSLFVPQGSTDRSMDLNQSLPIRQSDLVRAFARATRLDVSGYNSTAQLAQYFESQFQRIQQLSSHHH

BJ [21] = test: BJ-TERT-LT-ST fibroblast viability loss – cell-based, RAS-independent, luminescence, dose response (AID 1935); format: functional; conditions: Homo sapiens;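 also: BJ fibroblasts immortalized with TERT plus LT and ST oncogenes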
[22] = general mammalian cell viability loss – inhibitor set, cherry-pick, set 2, cytotoxicity control for miR-122 modulator project, dose response (AID 720697); format: functional, cell-based
[23] = DRD fibroblast viability loss – cell-based, non-viral oncogenic, luminescence, dose response (AID 1934); format: functional; conditions: Homo sapiens
Large T antigen = Large T antigen (Simian virus 40, UniProt P03070); format: functional, Betapolyomavirus macacae;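 also: Confirmatory-stage PubChem screen for compounds that inhibit SV40 T antigen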
[24] = reduction of Shn3 3'UTR-driven luciferase in osteoblasts – cell-based, Clone20 osteoblasts, firefly luciferase, cherry-picked, dose response (AID 624132); format: functional;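 also: firefly luciferase luminescence from reporter carrying the Shn3 3'UTR in osteoblasts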
[25] = molecular target: Cyclin-dependent kinase 5/CDK5 activator 1 (Homo sapiens, UniProt Q00535); test: blockade of human CDK5 activity – biochemical, cherry-picked samples, set 2, dose response (AID 504545)
[26] = non-specific 3'UTR reporter inhibition in Clone20-Shn3RL – cell-based, Renilla luciferase, cherry-picked, counter-screen for Shn3 inhibitor project, dose response (AID 624133); format: functional
Estrogen receptor beta [27] = molecular target: T4, Estrogen receptor beta
[28] = activation of miR-122 Renilla sensor silencing – cell-based, Huh7 psiCHECK-miR122, Renilla luciferase, cherry-picked, dose response (AID 651956); format: functional;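 also: huh7 hepatoma cells stably carrying a psiCHECK-2 miR-122 sensor plasmid; renilla luciferase signal reporting endogenous miR-122 activity after 48 h compound exposure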
BJ [29] = test: BJ-TERT fibroblast viability loss – cell-based, RAS-independent, luminescence, dose response (AID 1933); format: functional; conditions: Homo sapiens
[30] = molecular target: T7, Eukaryotic translation initiation factor 2-alpha kinase 3 (Homo sapiens, UniProt Q9NZJ5); test: Dose response cell-based high-throughput screening assay to measure PERK inhibition. [Related pubchem assays: 1416 ]; format: functional
[31] = molecular target: T7, Eukaryotic translation initiation factor 2-alpha kinase 3; test: Counterscreen assay for PERK inhibitors: Dose response cell-based high throughput screening assay to measure inhibition of PERK at 6 hours. [Related pubchem assays: 1522, 1416 ]; format: functional

T4 sequence (Q92731 whole entry): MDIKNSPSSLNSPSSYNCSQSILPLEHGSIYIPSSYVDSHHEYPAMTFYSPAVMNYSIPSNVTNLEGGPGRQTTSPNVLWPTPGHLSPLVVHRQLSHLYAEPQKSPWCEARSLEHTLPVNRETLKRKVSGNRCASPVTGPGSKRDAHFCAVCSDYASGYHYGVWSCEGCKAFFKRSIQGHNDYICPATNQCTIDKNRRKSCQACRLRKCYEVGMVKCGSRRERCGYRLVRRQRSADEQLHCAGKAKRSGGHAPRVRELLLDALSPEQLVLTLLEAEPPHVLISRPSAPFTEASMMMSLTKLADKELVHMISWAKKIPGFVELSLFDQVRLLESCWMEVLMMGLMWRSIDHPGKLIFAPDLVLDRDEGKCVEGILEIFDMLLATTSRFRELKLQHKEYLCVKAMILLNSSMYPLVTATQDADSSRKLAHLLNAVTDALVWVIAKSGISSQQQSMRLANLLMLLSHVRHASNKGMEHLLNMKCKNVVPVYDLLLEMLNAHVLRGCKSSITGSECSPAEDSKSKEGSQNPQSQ
T7 sequence (Q9NZJ5 whole entry): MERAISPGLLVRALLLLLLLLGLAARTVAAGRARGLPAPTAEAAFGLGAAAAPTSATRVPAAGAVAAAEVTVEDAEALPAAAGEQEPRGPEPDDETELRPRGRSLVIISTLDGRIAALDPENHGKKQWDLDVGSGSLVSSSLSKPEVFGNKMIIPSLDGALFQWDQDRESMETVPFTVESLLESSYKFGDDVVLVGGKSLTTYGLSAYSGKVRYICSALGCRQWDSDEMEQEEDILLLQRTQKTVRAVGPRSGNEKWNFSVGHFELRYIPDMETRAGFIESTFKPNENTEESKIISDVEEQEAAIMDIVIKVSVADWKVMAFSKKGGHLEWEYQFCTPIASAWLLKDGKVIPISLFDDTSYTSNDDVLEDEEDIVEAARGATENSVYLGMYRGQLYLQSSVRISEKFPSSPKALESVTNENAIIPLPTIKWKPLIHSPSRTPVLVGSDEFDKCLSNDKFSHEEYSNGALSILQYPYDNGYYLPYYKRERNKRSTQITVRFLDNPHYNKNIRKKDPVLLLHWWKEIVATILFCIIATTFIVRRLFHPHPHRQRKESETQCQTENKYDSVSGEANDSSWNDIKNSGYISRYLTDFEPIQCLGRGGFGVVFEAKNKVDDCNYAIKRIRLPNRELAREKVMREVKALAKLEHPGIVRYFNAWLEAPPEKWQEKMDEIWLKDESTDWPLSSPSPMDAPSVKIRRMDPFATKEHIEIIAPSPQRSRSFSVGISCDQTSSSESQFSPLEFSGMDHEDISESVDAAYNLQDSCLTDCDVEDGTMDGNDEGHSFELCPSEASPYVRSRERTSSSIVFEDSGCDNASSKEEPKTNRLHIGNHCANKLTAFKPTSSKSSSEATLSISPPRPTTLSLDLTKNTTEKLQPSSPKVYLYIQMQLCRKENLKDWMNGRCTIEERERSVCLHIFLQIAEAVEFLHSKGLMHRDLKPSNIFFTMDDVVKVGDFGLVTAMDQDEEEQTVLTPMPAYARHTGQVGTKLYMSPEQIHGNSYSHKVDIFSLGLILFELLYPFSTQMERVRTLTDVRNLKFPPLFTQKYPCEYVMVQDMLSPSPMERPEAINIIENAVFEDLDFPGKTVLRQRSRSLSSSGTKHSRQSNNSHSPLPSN
T2 sequence (Q9UBE0 whole entry): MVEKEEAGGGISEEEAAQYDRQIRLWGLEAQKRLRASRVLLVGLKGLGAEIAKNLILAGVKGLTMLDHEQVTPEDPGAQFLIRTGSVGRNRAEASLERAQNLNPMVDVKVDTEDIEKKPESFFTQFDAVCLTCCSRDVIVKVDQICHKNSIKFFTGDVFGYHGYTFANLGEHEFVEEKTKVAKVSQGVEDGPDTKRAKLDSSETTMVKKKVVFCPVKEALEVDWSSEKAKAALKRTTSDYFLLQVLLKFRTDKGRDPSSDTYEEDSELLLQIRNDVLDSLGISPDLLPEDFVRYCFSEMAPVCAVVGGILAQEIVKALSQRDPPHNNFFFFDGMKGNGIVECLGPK
T2 sequence (Q9UBT2 whole entry): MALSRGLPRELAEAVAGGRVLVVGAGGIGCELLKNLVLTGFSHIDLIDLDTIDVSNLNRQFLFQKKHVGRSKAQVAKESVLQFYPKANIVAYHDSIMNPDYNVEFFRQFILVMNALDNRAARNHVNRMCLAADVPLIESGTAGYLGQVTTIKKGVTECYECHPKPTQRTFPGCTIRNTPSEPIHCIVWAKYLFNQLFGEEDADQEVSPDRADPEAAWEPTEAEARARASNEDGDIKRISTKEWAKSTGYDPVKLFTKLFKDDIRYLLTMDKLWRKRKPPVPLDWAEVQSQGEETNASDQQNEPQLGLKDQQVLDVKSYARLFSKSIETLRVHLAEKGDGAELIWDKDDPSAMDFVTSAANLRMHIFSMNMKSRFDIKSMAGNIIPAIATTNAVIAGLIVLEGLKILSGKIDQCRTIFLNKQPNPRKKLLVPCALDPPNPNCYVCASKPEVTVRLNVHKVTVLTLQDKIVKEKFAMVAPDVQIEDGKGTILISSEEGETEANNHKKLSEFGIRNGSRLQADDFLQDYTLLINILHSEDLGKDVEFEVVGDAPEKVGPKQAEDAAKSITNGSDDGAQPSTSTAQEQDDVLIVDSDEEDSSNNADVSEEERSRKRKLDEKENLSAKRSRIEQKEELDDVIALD
Chain of Guanyl-specific ribonuclease T1 (P00651 whole entry): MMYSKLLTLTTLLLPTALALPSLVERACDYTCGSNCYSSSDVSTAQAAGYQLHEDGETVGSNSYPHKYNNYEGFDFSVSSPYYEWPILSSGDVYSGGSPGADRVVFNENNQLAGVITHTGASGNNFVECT
Chain of FAD-linked sulfhydryl oxidase ALR (P55789 whole entry): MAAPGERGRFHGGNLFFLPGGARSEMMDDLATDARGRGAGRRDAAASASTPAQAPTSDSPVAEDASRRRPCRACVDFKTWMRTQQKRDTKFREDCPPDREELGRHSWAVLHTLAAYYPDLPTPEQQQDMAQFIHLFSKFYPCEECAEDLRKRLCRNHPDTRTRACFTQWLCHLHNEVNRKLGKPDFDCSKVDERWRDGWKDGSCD
Chain of Photoreceptor-specific nuclear receptor (Q9Y5X4 whole entry): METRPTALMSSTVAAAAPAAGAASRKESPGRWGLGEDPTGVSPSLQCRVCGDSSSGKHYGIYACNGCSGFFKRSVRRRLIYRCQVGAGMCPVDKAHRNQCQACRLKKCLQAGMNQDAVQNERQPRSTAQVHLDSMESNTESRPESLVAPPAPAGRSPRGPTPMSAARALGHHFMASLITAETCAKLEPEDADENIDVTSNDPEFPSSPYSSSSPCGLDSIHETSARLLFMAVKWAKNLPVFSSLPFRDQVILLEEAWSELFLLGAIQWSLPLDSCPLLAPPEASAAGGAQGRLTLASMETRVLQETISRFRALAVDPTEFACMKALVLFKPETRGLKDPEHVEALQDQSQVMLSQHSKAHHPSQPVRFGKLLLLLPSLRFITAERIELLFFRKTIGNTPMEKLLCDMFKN
Chain of Cyclin-dependent kinase 5/CDK5 activator 1 (Q00535 whole entry): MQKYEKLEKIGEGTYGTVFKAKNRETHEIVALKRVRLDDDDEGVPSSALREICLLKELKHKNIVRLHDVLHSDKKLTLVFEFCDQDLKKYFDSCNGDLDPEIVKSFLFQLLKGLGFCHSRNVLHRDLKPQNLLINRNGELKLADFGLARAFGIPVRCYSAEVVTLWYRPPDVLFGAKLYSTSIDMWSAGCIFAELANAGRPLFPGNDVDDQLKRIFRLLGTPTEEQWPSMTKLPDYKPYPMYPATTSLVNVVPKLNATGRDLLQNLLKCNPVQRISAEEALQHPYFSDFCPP
Chain of Cyclin-dependent kinase 5/CDK5 activator 1 (Q15078 whole entry, further chain): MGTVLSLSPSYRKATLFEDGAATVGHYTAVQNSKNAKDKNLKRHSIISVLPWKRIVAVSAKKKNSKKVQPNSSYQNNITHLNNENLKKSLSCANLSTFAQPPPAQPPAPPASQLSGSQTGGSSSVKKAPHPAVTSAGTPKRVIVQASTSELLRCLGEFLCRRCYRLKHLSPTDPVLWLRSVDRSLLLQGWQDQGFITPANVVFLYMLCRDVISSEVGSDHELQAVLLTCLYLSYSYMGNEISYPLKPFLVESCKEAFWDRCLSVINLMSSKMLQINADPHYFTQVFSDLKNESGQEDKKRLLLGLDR
Chain of Intestinal-type alkaline phosphatase (Mus musculus, UniProt P24822) (P24822 whole entry): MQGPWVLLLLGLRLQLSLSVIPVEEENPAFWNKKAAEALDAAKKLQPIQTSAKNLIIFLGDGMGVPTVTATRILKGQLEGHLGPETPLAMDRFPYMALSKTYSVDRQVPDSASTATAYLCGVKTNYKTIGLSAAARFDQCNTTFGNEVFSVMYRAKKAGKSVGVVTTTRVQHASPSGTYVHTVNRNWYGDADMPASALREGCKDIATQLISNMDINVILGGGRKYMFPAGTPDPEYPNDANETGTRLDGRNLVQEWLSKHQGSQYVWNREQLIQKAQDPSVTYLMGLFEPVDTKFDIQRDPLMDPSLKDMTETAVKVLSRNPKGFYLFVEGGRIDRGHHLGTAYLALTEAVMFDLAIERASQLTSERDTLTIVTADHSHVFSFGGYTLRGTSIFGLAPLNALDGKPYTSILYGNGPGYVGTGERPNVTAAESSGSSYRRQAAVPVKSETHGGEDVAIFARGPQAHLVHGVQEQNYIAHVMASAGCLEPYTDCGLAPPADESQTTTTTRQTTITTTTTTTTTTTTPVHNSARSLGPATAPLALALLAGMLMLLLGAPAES
Chain of Phospholipase A2 (P04054 whole entry): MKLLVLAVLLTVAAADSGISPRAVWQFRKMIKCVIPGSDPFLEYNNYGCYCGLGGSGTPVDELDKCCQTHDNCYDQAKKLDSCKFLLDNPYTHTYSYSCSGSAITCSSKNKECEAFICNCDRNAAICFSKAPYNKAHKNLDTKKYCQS

IC50 (Beta-galactosidase): > 66.6 µM (inactive) | IC50 [1]: > 66.6 µM (inactive)
SMILES: CN(Cc1ccccc1)S(=O)(=O)c1ccc(NC(=S)NC(=O)C2CCCCC2)cc1

SMILES: O=C(Nc1ccc2ncccc2c1)c1ccccc1
IC50 [2]: > 100 µM (inactive) | IC50 [3]: 14.2 µM (active)

IC50 [4]: > 100 µM (inactive) | IC50 [5]: 5.08 µM (active) | IC50 (Phospholipase A2): > 80 µM (inactive) | EC50 [6]: > 100 µM (inactive) | IC50 (SUMO-activating enzyme [7]): 530 nM (active) | IC50 [8]: 12.3 µM (not active) | IC50 [9]: 14 µM (not active) | IC50 (Cysteine protease ATG4B): 11.1 µM (active) | IC50 [10]: 13.5 µM (active) | IC50 (SUMO-activating enzyme [11]): 6.1 µM (active)
SMILES: O=C(NN1C(=O)/C(=C/C=C/c2ccco2)SC1=S)c1ccncc1

IC50 [12]: 6.54 µM (active) | IC50 [13]: 4.75 µM (active)
SMILES: Cc1ccc(-n2c(=S)[nH]c3c(oc4ccccc43)c2=O)cc1

SMILES: Oc1ccc(-c2nc(-c3ccc(O)c(O)c3)cs2)cc1
AC50 [14]: > 70 µM (inactive) | AC50 [15]: 1.22 µM (active) | EC50 (BJ [16]): 41.4 µM (active) | IC50 (Estrogen receptor beta [17]): 90.7 µM (not active) | EC50 [18]: 20.8 µM (inconclusive) | AC50 [19]: 3.19 µM (active) | EC50 [20]: 33.5 µM (active) | EC50 (BJ [21]): > 150 µM (not active) | AC50 [22]: 1.31 µM (active) | EC50 [23]: 2.67 µM (inconclusive) | IC50 (Large T antigen): 36.1 µM (active) | AC50 [24]: 5.07 µM (active) | AC50 [25]: 23.5 µM (active) | AC50 [26]: 5.09 µM (active) | IC50 (Estrogen receptor beta [27]): 4.96 µM (active) | AC50 [28]: 29 µM (active) | EC50 (BJ [29]): 2.89 µM (inconclusive)

EC50 [30]: > 55.7 µM (not active) | EC50 [31]: > 55.7 µM (not active)
SMILES: FC(F)(F)c1cccc(Oc2ccc3c(C(F)(F)F)cc(C(F)(F)F)nc3n2)c1
